Columns and labels:
[1] = target: T1, 5-hydroxytryptamine receptor 1A (Homo sapiens, UniProt P08908); assay: Displacement of [3H]-8-OH-DPAT from full length human cloned 5HT1A receptor expressed in HEK293 cells incubated for 1 hr by radioligand displacement assay; format: cell-based
T1 sequence (P08908 whole entry): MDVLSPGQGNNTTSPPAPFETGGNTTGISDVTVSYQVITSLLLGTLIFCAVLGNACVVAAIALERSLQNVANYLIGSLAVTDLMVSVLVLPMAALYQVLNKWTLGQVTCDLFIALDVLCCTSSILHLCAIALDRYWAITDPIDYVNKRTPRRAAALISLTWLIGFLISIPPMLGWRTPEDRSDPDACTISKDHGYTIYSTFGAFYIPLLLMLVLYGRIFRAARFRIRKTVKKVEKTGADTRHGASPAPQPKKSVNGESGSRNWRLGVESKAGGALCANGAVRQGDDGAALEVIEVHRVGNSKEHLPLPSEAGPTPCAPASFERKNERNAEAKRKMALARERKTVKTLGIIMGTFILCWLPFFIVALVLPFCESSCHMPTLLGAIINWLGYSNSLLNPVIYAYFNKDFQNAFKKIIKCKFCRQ

[2] = target: T2, D(2) dopamine receptor (Homo sapiens, UniProt P14416); assay: Displacement of [3H]raclopride from full length human cloned D2L receptor expressed in HEK293 cells incubated for 1 hr by radioligand displacement assay; format: cell-based
[3] = target: 5-hydroxytryptamine receptor 2A (Homo sapiens, UniProt P28223); assay: Displacement of [3H]ketanserin from full length human cloned 5HT2A receptor expressed in CHO-K1 cells incubated for 1 hr by radioligand displacement assay; format: cell-based
[4] = target: 5-hydroxytryptamine receptor 6 (Homo sapiens, UniProt P50406); assay: Displacement of [3H]LSD from full length human cloned 5HT6R expressed in HEK293 cells incubated for 1 hr by radioligand displacement assay; format: cell-based
[5] = target: 5-hydroxytryptamine receptor 7 (Homo sapiens, UniProt P34969); assay: Displacement of [3H]5-CT from full length human cloned 5-HT7bR expressed in HEK293 cells incubated for 1 hr by radioligand displacement assay; format: cell-based
[6] = target: T2, D(2) dopamine receptor; assay: Antagonist activity at human D2 receptor expressed in HEK293 cells assessed as cAMP accumulation incubated for 30 mins in presence of forskolin/dopamine by TR-FRET assay; format: functional, cell-based
[7] = target: T1, 5-hydroxytryptamine receptor 1A; assay: Agonist activity at human 5 HT1A receptor expressed in HEK293 cells assessed as inhibition of forskolin-stimulated cAMP accumulation incubated for 30 mins by TR-FRET assay; format: functional, cell-based
[8] = target: T3, 5-hydroxytryptamine receptor 1A (Rattus norvegicus, UniProt P19327); assay: Displacement of [3H]-8-OH-DPAT from 5HT1A receptor in rat brain hippocampus incubated for 60 mins by radioligand binding assay
T3 sequence (P19327 whole entry): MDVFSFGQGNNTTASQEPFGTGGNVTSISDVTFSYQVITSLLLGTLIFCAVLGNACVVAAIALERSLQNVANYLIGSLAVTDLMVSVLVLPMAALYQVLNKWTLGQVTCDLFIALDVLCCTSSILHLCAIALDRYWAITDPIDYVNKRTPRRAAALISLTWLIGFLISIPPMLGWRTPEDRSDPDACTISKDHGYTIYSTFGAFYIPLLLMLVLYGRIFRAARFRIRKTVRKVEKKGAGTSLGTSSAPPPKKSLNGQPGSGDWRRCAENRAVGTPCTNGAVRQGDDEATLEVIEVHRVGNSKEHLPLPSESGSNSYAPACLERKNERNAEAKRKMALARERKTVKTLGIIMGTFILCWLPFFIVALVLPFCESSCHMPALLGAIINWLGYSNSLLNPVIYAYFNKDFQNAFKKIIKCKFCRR

[9] = target: D(2) dopamine receptor (Rattus norvegicus, UniProt P61169); assay: Displacement of [3H]raclopride from D2 receptor in rat brain striatum incubated for 60 mins by radioligand binding assay; format: tissue-based
[10] = target: T4, 5-hydroxytryptamine receptor 1A (Homo sapiens) (UniProt P08908); assay: Antagonist activity at human 5 HT1A receptor expressed in HEK293 cells assessed as cAMP accumulation incubated for 30 mins in presence of forskolin/8-OH-DPAT by TR-FRET assay; format: functional, cell-based
T4 sequence (whole entry): T1 sequence (P08908 whole entry)

[11] = target: T2, D(2) dopamine receptor; assay: Displacement of [3H]raclopride from human cloned D2 receptor expressed in HEK293 cells by radioligand binding assay; format: cell-based
[12] = target: T3, 5-hydroxytryptamine receptor 1A; assay: Displacement of [3H]-8-OH-DPAT from 5HT1A receptor in Wistar rat brain cerebral cortex incubated for 30 mins by liquid scintillation spectrometry; format: tissue-based
[13] = target: 5-hydroxytryptamine receptor 2A (Rattus norvegicus, UniProt P14842); assay: Displacement of [3H]ketanserin from 5-HT2A receptor in Wistar rat brain frontal cortex incubated for 30 mins by radioligand binding assay; format: tissue-based
5-hydroxytryptamine receptor 2A (Rattus norvegicus, UniProt P14842), sequence (P14842 whole entry): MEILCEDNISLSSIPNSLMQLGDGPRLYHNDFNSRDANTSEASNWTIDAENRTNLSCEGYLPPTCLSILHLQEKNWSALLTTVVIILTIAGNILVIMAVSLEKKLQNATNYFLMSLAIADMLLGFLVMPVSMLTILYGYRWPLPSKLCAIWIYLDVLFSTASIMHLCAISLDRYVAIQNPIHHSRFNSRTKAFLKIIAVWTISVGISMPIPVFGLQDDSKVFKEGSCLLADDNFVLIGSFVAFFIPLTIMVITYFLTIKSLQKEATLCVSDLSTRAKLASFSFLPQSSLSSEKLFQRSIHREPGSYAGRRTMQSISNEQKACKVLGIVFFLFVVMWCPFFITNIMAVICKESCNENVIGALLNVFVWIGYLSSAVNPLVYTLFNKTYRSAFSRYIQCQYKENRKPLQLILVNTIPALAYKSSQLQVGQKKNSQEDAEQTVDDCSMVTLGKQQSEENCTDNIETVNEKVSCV

T2 sequence (P14416 whole entry): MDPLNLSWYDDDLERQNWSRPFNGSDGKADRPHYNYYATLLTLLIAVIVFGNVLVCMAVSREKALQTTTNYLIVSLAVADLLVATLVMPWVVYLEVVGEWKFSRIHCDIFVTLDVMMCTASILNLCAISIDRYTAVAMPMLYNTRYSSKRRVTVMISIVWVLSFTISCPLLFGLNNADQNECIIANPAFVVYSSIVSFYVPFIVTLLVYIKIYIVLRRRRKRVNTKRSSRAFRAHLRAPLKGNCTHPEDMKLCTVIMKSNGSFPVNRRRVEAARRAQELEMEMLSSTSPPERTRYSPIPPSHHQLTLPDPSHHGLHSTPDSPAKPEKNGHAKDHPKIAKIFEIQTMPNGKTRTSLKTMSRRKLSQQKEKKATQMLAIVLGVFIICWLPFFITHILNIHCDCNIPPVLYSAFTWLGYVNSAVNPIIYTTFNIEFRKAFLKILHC
5-hydroxytryptamine receptor 2A (Homo sapiens, UniProt P28223), sequence (P28223 whole entry): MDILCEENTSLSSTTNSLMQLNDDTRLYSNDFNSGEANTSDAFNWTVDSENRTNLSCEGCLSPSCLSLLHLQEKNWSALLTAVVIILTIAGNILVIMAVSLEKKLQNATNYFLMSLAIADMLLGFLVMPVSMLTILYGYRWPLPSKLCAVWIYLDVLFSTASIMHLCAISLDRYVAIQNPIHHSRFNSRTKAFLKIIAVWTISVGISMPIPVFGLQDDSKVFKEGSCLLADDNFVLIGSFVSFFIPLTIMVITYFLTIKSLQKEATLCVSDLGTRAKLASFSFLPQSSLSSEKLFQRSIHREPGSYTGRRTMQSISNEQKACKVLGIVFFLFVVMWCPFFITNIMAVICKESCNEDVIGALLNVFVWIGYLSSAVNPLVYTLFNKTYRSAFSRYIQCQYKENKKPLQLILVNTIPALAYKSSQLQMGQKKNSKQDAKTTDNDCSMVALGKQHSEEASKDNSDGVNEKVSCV
5-hydroxytryptamine receptor 7, sequence (P34969 whole entry): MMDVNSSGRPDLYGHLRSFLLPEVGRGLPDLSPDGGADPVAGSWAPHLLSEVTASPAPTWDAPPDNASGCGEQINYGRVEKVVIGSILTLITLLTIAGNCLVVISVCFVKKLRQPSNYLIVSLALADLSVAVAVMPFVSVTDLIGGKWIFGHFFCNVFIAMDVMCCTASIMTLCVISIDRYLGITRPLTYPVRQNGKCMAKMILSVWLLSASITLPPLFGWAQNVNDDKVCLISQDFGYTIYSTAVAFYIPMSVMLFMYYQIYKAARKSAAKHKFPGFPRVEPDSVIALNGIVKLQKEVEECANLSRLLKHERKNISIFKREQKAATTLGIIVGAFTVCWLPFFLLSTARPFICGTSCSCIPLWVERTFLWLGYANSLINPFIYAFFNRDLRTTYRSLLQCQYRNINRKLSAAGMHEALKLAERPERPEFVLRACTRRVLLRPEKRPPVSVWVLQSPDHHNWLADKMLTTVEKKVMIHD
5-hydroxytryptamine receptor 6, sequence (P50406 whole entry): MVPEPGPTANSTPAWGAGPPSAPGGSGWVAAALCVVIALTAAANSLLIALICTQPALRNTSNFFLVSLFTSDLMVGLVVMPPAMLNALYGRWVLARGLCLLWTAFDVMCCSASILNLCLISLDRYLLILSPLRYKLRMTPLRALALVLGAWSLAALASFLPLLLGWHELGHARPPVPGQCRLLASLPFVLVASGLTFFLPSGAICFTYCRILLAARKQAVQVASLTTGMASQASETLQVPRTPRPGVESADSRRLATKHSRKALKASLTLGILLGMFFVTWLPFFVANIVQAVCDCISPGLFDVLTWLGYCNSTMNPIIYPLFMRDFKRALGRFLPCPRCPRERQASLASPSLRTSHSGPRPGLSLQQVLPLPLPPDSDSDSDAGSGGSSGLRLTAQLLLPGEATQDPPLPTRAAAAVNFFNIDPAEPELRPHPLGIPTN
D(2) dopamine receptor (Rattus norvegicus, UniProt P61169), sequence (P61169 whole entry): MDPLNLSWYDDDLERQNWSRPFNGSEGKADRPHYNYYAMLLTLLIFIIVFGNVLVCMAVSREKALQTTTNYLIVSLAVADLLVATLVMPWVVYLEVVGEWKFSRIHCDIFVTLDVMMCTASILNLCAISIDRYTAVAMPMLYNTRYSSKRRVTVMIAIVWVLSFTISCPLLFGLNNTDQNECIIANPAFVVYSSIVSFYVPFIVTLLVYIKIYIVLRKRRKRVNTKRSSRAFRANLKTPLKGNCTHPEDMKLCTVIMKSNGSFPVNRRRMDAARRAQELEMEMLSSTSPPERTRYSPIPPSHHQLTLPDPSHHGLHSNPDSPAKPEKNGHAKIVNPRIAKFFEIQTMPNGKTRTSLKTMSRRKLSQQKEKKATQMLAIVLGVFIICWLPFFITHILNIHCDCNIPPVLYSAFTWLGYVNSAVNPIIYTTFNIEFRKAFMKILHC

SMILES	Ki [1] [nM]	Ki [2] [nM]	Ki [3] [nM]	Ki [4] [nM]	Ki [5] [nM]	also measured
O=C1c2ccccc2S(=O)(=O)N1CCCCCCN1CCN(c2ccccc2F)CC1	12	24	307	1620	322	–
COc1cccc(N2CCN(CCCCCCN3C(=O)c4ccccc4S3(=O)=O)CC2)c1	19	113	342	921	305	–
COc1ccc(N2CCN(CCCCCCN3C(=O)c4ccccc4S3(=O)=O)CC2)cc1	327	950	–	–	–	–
O=C1c2ccccc2S(=O)(=O)N1CCCCCCN1CCN(c2cccc(C(F)(F)F)c2)CC1	25	7	167	52	58	Kb [6]: 319 nM; EC50 [7]: 56 nM
O=C1c2ccccc2S(=O)(=O)N1CCCCCCN1CCN(c2ccc(Cl)c(Cl)c2)CC1	54	105	283	132	258	–
O=C1c2ccccc2S(=O)(=O)N1CCCCCCN1CCN(c2ccccc2Cl)CC1	26	45	266	459	120	–
COc1ccccc1N1CCN(CCCCCCN2C(=O)c3ccccc3S2(=O)=O)CC1	91	61	–	–	–	–
O=C1c2ccccc2S(=O)(=O)N1CCCCCCN1CCN(c2ccccc2)CC1	20	48	321	971	192	–
O=c1ccc2ccc(OCCCCN3CCN(c4cccc5sccc45)CC3)cc2[nH]1 [BREXPIPRAZOLE]	–	–	–	–	–	Ki [8]: 0.09 nM; Ki [9]: 3.8 nM
O=C1c2ccccc2S(=O)(=O)N1CCCCCCN1CCN(c2cccc3ccccc23)CC1	9	8	91	157	20	Kb [6]: 14 nM; Kb [10]: 14 nM
O=C1c2ccccc2S(=O)(=O)N1CCCCN1CCN(c2ncccn2)CC1 [IPSAPIRONE]	–	–	–	–	–	Ki [11]: 1220 nM
O=C1c2ccccc2S(=O)(=O)N1CCCCCCN1CCN(c2cccc3cccnc23)CC1	4	15	205	1720	21	Kb [6]: 10 nM; Kb [10]: 7 nM
O=C1c2ccccc2S(=O)(=O)N1CCCCCCN1CCN(c2nsc3ccccc23)CC1	23	9	23	58	45	–
O=C1c2ccccc2S(=O)(=O)N1CCCCCCN1CCN(c2ccccn2)CC1	13	239	1290	2350	552	–
O=C1c2ccccc2S(=O)(=O)N1CCCCCCN1CCN(c2ccc(Cl)cc2)CC1	84	28	–	–	–	–
O=C1c2ccccc2S(=O)(=O)N1CCCCCCN1CCN(c2ncccn2)CC1	24	51	183	104	35	–
O=C1c2ccccc2S(=O)(=O)N1CCCCN1CCN(c2cccc(C(F)(F)F)c2)CC1	–	–	–	–	–	Ki [12]: 100 nM; Ki [13]: 2250 nM
O=C1c2ccccc2S(=O)(=O)N1CCCCCCN1CCN(c2ccccc2C(F)(F)F)CC1	156	27	922	1270	195	–
O=C1c2ccccc2S(=O)(=O)N1CCCCCCN1CCN(c2cccc(Cl)c2)CC1	21	39	361	372	233	–
O=C1c2ccccc2S(=O)(=O)N1CCCCCCN1CCN(c2cccc(Cl)c2Cl)CC1	58	132	209	920	119	–

— ChEMBL document CHEMBL4304820, “Design, synthesis and biological evaluation of novel serotonin and dopamine receptor ligands being 6-bromohexyl saccharine derivatives” (Bioorg Med Chem Lett, 2019)
